Test results taken from the NIST ThermoML archive (doi:10.1016/j.fluid.2018.08.012).
Where “and” joins values, the source holds several entries; their conditions need not be identical. Identical values can stand only once.

Test: mn = molality of the nth substance listed, in mol/kg
Conditions: Fluid (supercritical or subcritical phases), Vibrating tube method, m1 = 0.2392

O=S=O [sulfur dioxide] + O=C=O
Conditions | mass density
324.07 K, 2523.7 kPa | 45.99 kg/m3
324.07 K, 2524.8 kPa | 46.06 kg/m3
324.07 K, 5037.9 kPa | 106.08 kg/m3
324.07 K, 5047.5 kPa | 106.41 kg/m3
324.07 K, 7549.5 kPa | 197.2 kg/m3
324.07 K, 7550.3 kPa | 197.25 kg/m3
324.07 K, 10068 kPa | 396.72 kg/m3
324.07 K, 10080 kPa | 398.55 kg/m3
324.07 K, 12568 kPa | 620.49 kg/m3 and 620.47 kg/m3
324.07 K, 15086 kPa | 705.24 kg/m3
324.07 K, 15087 kPa | 705.32 kg/m3
324.07 K, 17615 kPa | 754.18 kg/m3
324.07 K, 20140 kPa | 788.89 kg/m3 and 788.93 kg/m3
324.07 K, 22662 kPa | 816.06 kg/m3
324.07 K, 22664 kPa | 816.05 kg/m3
324.07 K, 25179 kPa | 838.47 kg/m3
324.07 K, 25185 kPa | 838.49 kg/m3
324.07 K, 27695 kPa | 857.63 kg/m3
324.07 K, 27705 kPa | 857.68 kg/m3
324.07 K, 30187 kPa | 874.31 kg/m3
324.07 K, 30220 kPa | 874.51 kg/m3
324.07 K, 32689 kPa | 889.28 kg/m3
324.07 K, 32729 kPa | 889.51 kg/m3
324.07 K, 35178 kPa | 902.77 kg/m3
324.07 K, 35212 kPa | 902.97 kg/m3
349.39 K, 2532.7 kPa | 41.96 kg/m3
349.39 K, 2537.9 kPa | 42.01 kg/m3
349.39 K, 5043.8 kPa | 91.74 kg/m3
349.39 K, 5046.4 kPa | 91.91 kg/m3
349.39 K, 7518.6 kPa | 153.18 kg/m3
349.39 K, 7555.2 kPa | 154.4 kg/m3
349.39 K, 10069 kPa | 236.57 kg/m3
349.39 K, 10075 kPa | 236.62 kg/m3
349.39 K, 12580 kPa | 346.19 kg/m3
349.39 K, 12586 kPa | 346.44 kg/m3
349.39 K, 15085 kPa | 467.39 kg/m3
349.39 K, 15089 kPa | 467.53 kg/m3
349.39 K, 17619 kPa | 564.01 kg/m3
349.39 K, 17622 kPa | 564.12 kg/m3
349.39 K, 20144 kPa | 630.6 kg/m3
349.39 K, 20146 kPa | 630.67 kg/m3
349.39 K, 22669 kPa | 678.62 kg/m3
349.39 K, 22671 kPa | 678.72 kg/m3
349.39 K, 25189 kPa | 715.52 kg/m3
349.39 K, 25190 kPa | 715.6 kg/m3
349.39 K, 27706 kPa | 745.39 kg/m3
349.39 K, 27707 kPa | 745.51 kg/m3
349.39 K, 30211 kPa | 770.4 kg/m3
349.39 K, 30216 kPa | 770.37 kg/m3
349.39 K, 32707 kPa | 791.84 kg/m3
349.39 K, 32708 kPa | 791.77 kg/m3
349.39 K, 35200 kPa | 810.62 kg/m3
349.39 K, 35202 kPa | 810.71 kg/m3
375.06 K, 2549.7 kPa | 38.37 kg/m3
375.06 K, 2555.7 kPa | 38.44 kg/m3
375.06 K, 5060.6 kPa | 81.6 kg/m3
375.06 K, 5068.6 kPa | 81.91 kg/m3
375.06 K, 7564.3 kPa | 131.73 kg/m3
375.06 K, 7579.7 kPa | 132.31 kg/m3
375.06 K, 10049 kPa | 189.67 kg/m3
375.06 K, 10080 kPa | 190.27 kg/m3
375.06 K, 12595 kPa | 258.2 kg/m3
375.06 K, 12612 kPa | 259 kg/m3
375.06 K, 15080 kPa | 333.08 kg/m3
375.06 K, 15093 kPa | 333.81 kg/m3
375.06 K, 17617 kPa | 411.4 kg/m3
375.06 K, 17623 kPa | 411.26 kg/m3
375.06 K, 20142 kPa | 482.1 kg/m3
375.06 K, 20148 kPa | 481.92 kg/m3
375.06 K, 22667 kPa | 541.64 kg/m3
375.06 K, 22672 kPa | 541.46 kg/m3
375.06 K, 25185 kPa | 590.31 kg/m3
375.06 K, 25191 kPa | 590.18 kg/m3
375.06 K, 27702 kPa | 630.33 kg/m3
375.06 K, 27708 kPa | 630.2 kg/m3
375.06 K, 30214 kPa | 663.73 kg/m3
375.06 K, 30222 kPa | 663.67 kg/m3
375.06 K, 32714 kPa | 692.09 kg/m3
375.06 K, 32726 kPa | 692.34 kg/m3
375.06 K, 35206 kPa | 716.75 kg/m3
375.06 K, 35223 kPa | 717.02 kg/m3
399.99 K, 2560.5 kPa | 35.13 kg/m3
399.99 K, 2564.5 kPa | 35.68 kg/m3
399.99 K, 5074.4 kPa | 74.46 kg/m3
399.99 K, 5079.5 kPa | 74.06 kg/m3
399.99 K, 7580.3 kPa | 116.91 kg/m3
399.99 K, 7584.9 kPa | 117.53 kg/m3
399.99 K, 10090 kPa | 164.56 kg/m3
399.99 K, 10112 kPa | 164.41 kg/m3
399.99 K, 12594 kPa | 215.96 kg/m3
399.99 K, 12608 kPa | 216.99 kg/m3
399.99 K, 15081 kPa | 271.09 kg/m3
399.99 K, 15090 kPa | 272.1 kg/m3
399.99 K, 17615 kPa | 329.58 kg/m3
399.99 K, 17617 kPa | 330.16 kg/m3
399.99 K, 20141 kPa | 387.34 kg/m3 and 386.76 kg/m3
399.99 K, 22663 kPa | 440.42 kg/m3
399.99 K, 22665 kPa | 441.02 kg/m3
399.99 K, 25183 kPa | 488.79 kg/m3
399.99 K, 25184 kPa | 489.39 kg/m3
399.99 K, 27700 kPa | 532.13 kg/m3
399.99 K, 27701 kPa | 531.53 kg/m3
399.99 K, 30211 kPa | 569.48 kg/m3
399.99 K, 30212 kPa | 568.87 kg/m3
399.99 K, 32703 kPa | 601.95 kg/m3
399.99 K, 32723 kPa | 601.61 kg/m3
399.99 K, 35199 kPa | 630.66 kg/m3
399.99 K, 35210 kPa | 630.23 kg/m3
